Where only a bound is given, the exact number is not on record here.

The target in one assay is T1, Aβ1−42 fibrils (Homo sapiens, UniProt P05067).
T1 construct: 1 mg of β-amyloid1–42 peptide (Abcam, Cambridge, UK); purchased Abcam
The assay is described as follows: Competition binding assay against [^3H]PiB, Aβ1−42 fibrils. As to conditions: read-out: Ki Aβ. The procedure:
After the dissolution of 1 mg of β-amyloid1–42 peptide (Abcam, Cambridge, UK) in 50 μL of DMSO, 925 μL of Milli-Q® water was added to it, and the mixture was stirred. Finally, 25 μL of 1M Tris HCl, pH 7.4 was added to bring the final peptide concentration to 1 mg/mL. The mixture was then left to incubate at 37 °C for 30 h with shaking at 900 rpm. To separate the non-aggregated monomers from the formed fibrils, the reaction mixture was centrifuged at 12,000× g for 5 min, and the resulting pellet was washed three times with 500 μL of 20 mM Tris-HCl, pH 7.4. The supernatants from the three centrifugation steps were combined, and the concentration of the monomer in the resulting supernatant was determined in a BCA assay (Thermo Fisher Scientific, Waltham, MA, USA) (with a BSA standard curve). Determination of the concentration of fibrils formed was carried out by subtracting the amount of β-amyloid1−42 peptide monomer in the supernatant from the initial amount used for fibrillation.
(§1) The pellets of the fibrils obtained above (Section 4.2.1) were resuspended in 20 mM of Tris-HCl, pH 7.4 and diluted as needed for the binding assays.
(§2) A fixed concentration of [^3H]DCVJ (10 nM) and α-synuclein aggregates (125 nM), prepared as described above (Section 4.2.3), was used with different final concentrations of the DABTAs from 0.01 to 100 nM (see SI Figure S1). The experiment was carried out in quintuplicate for each concentration. The mixture was incubated for 2 h in a final volume of 200 μL per well after dilution with 20 mM of Tris-HCl, pH 7.4. The incubated mixtures were filtered through a Perkin Elmer GF/B glass filter via a TOMTEC cell harvester and immediately washed thrice with 1 mL of deionized water. The filters containing the bound ligands were dried and afterwards mixed with 3 mL of BetaPlate Scint solution (Perkin Elmer Life Sciences, Waltham, MA, USA) and left there for 2 h before counting in a Wallac 1450 MicroBeta TriLux Liquid Scintillation Counter (PerkinElmer Life Sciences, Waltham, MA, USA). For the determination of the inhibition constants, data were analyzed using GraphPad Prism software (version 7.0) to obtain IC50 values by fitting the data to the equation Y = bottom + (top − bottom)/(1 + 10(x − log IC50)). Ki values were calculated from IC50 values using the equation Ki = IC50/(1 + [radioligand]/Kd). […] Further protocol was carried out as for [^3H]DCVJ (see SI Figure S3).
Further procedures followed the same already described in Section 4.2.3.1 (See SI Figure S4).

For assay [1], the target named is T2, recombinant α-syn fibrils (Homo sapiens, UniProt P37840).
T2 construct: made in house
Description: Competition binding assay against [^3H]PiB, α-syn fibrils. As to conditions: for Selectivity Aβ/α-syn / Selectivity tau/α-syn: ratio of Ki, [^3H]PiB was used.

The target in another assay is tau fibrils (Homo sapiens, UniProt P10636). Description: Competition binding assay against [^3H]PiB, tau fibrils. The procedure:
as §2, with “Recombinant tau monomer (R&D systems, Minneapolis, MN, USA) was dissolved in 20 mM of Tris HCl, pH 8.0, 100 mM of NaCl, 25 μM of low-MW heparin, and 0.5 mM of dithiothreitol to a final concentration of 300 µg/mL. The mixture was incubated with shaking at 900 rpm at 37 °C for 48 h. To separate the non-aggregated monomers from the formed fibrils, the reaction mixture was centrifuged at 12,000× g for 5 min, and the resulting pellet was washed three times with 500 μL of 20 mM Tris-HCl, pH 7.4. The supernatants from the three centrifugation steps were combined, and the concentration of the monomer in the resulting supernatant was determined in a BCA assay(Thermo Fisher Scientific, Waltham, MA, USA) (with a BSA standard curve). Determination of the concentration of fibrils formed was carried out by subtracting the amount of tau peptide monomer in the supernatant from the initial amount used for fibrillation. The pellets of the fibrils obtained above (Section 4.2.1) were resuspended in 20 mM of Tris-HCl, pH 7.4 and diluted as needed for the binding assays. A fixed” for “A fixed”, “Figure S3). […] Further procedures followed the same already described in Section 4.2.3.1 (See SI Figure S4).” for “Figure S3).”

Assay [2] has as its target T2, recombinant α-syn fibrils. The assay is described as follows: Competition binding assay against [^3H]DCVJ, α-syn fibrils. As to conditions: for Ki: [^3H]DCVJ was used (10 nM), α-synuclein aggregates 125 nM; for Selectivity Aβ/α-syn / Selectivity tau/α-syn: ratio of Ki, [^3H]DCVJ was used. The procedure: The incubation of purified recombinant α-synuclein monomer (10 mg/mL) obtained as described by Uzuegbunam was carried out in PBS (pH 7.4) at 37 °C. The solution was left shaking at 900 rpm in an Eppendorf Thermomixer for up to 84 h. Determination of the concentration of the formed fibrils (α-syn) was carried out following the centrifugation of the reaction vial at 12,000× g for 5 min. The pellet obtained was washed thrice with 20 mM of Tris-HCl, pH 7.4. The supernatants from the three centrifugation steps were combined, and the concentration of the monomer in the resulting supernatant was determined in a BCA assay (Thermo Fisher Scientific, Waltham, MA, USA) (with a BSA standard curve). Determination of the concentration of α-syn was carried out by subtracting the amount of α-synuclein monomer in the supernatant from the initial amount used for fibrillation.
as §1, §2

T1 sequence (P05067 672-713): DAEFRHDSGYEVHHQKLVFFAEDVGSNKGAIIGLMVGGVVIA
tau fibrils, sequence (P10636 2-758): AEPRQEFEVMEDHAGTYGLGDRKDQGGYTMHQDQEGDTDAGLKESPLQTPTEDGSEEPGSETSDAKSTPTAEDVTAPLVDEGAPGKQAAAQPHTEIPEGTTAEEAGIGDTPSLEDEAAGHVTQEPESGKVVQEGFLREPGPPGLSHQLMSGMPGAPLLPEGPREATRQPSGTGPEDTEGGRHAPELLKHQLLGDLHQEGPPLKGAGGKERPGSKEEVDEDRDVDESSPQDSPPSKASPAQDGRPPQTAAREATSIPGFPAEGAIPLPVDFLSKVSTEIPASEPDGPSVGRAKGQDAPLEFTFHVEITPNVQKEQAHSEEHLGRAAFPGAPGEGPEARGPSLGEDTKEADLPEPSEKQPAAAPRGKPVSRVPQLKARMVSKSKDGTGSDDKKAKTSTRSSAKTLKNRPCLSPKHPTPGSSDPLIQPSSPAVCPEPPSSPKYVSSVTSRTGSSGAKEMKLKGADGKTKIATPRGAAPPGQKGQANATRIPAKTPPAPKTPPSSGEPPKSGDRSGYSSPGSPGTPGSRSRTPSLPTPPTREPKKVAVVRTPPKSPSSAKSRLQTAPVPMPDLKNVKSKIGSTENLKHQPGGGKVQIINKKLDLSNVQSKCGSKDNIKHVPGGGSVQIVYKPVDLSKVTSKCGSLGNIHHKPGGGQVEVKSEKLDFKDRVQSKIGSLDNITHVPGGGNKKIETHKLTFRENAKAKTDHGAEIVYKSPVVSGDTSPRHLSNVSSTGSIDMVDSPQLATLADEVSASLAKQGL

Consider `COc1cnc(-c2csc(-c3nc(-c4ccc5c(c4)OCO5)cs3)n2)nc1` [f15, 4-(Benzo[d][1,3]dioxol-5-yl)-4′-(5-methoxypyrimidin-2-yl)-2,2′-bithiazole], for which the Ki (commonly a dissociation constant, usually derived from enzyme kinetics or from competition with a known ligand) on Aβ1−42 fibrils came out at 59.3 nM. Besides, in assay [1], the Ki was determined as 2.45 nM, the “Selectivity Aβ/α-syn” value stood at 24.2 and the “Selectivity tau/α-syn” value turned out to be 288.6. Further, at tau fibrils, the Ki was determined as 707 nM.

For `FCCOCCOCCOc1cnc(-c2csc(-c3nc(-c4cnc5c(c4)OCO5)cs3)n2)nc1` [f13, 6-(4′-(5-(2-(2-(2-Fluoroethoxy)ethoxy)ethoxy)pyrimidin-2-yl)-[2,2′-bithiazol]-4-yl)-[1,3]dioxolo[4,5-b]pyridine], the Ki on Aβ1−42 fibrils worked out at 46.6 nM. Further, in assay [1], the Ki amounted to 0.38 nM, the “Selectivity Aβ/α-syn” value came out at 122.6 and the “Selectivity tau/α-syn” value stood at 315.8. The inhibitory constant (Ki) at tau fibrils was determined as 120 nM.

For `FCCOc1ccc(-c2csc(-c3nc(-c4ccc5c(c4)OCO5)cs3)n2)cc1` [f11, 4-(Benzo[d][1,3]dioxol-5-yl)-4′-(4-(2-fluoroethoxy)phenyl)-2,2′-bithiazole], the Ki on Aβ1−42 fibrils stood at 99.6 nM; in assay [1], 3.71 nM; at tau fibrils, 499 nM. For the same molecule, the “Selectivity Aβ/α-syn” value in assay [1] was found to be 26.9.

Take `COc1ccc(-c2csc(-c3nc(-c4cnc5c(c4)OCO5)cs3)n2)cc1OCCOCCF` [f9, 6-(4′-(3-(2-(2-Fluoroethoxy)ethoxy)-4-methoxyphenyl)-[2,2′-bithiazol]-4-yl)-[1,3]dioxolo [4,5-b]pyridine]: the Ki was 47.6 nM at Aβ1−42 fibrils, 0.84 nM in assay [2], 0.96 nM in assay [1] and 1130 nM at tau fibrils. Moreover, in assay [1], the “Selectivity Aβ/α-syn” value was determined as 49.6. Further, the “Selectivity tau/α-syn” value in assay [1] came to 1177.1.

As to `FCCOCCOc1ccc(-c2csc(-c3nc(-c4cnc5c(c4)OCO5)cs3)n2)c(OCCOCCF)c1` [f20, 6-(4′-(2,4-Bis(2-(2-fluoroethoxy)ethoxy)phenyl)-[2,2′-bithiazol]-4-yl)-[1,3]dioxolo[4,5-b]pyridine], the inhibition constant (Ki) at Aβ1−42 fibrils is 221 nM. Further, in assay [1], the Ki was 1.31 nM, the “Selectivity Aβ/α-syn” value was determined as 168.9 and the “Selectivity tau/α-syn” value is on record as 621.8. Moreover, the Ki at tau fibrils stood at 815 nM.

As to `COc1ccc(-c2csc(-c3nc(-c4cnc5c(c4)OCO5)cs3)n2)c(OC)c1` [f19, 6-(4′-(2,4-Dimethoxyphenyl)-[2,2′-bithiazol]-4-yl)-[1,3]dioxolo[4,5-b]pyridine], the Ki at Aβ1−42 fibrils turned out to be 149 nM; in assay [1], 1.35 nM; at tau fibrils, 671 nM. Also, the “Selectivity Aβ/α-syn” value in assay [1] was found to be 110.1. For the same molecule, the “Selectivity tau/α-syn” value in assay [1] is 497.3.

In the case of `COc1ccc(-c2csc(-c3nc(-c4cnc5c(c4)OCO5)cs3)n2)cc1F` [d4, 6-(4′-(3-Fluoro-4-methoxyphenyl)-[2,2′-bithiazol]-4-yl)-[1,3]dioxolo[4,5-b]pyridine], the results for the Ki (at Aβ1−42 fibrils; in assay [1]; at tau fibrils) were 87.4 nM, 2.56 nM and 364 nM, respectively. In addition, the “Selectivity Aβ/α-syn” value was found to be 417.1 in assay [2] and 34.1 in assay [1]. The “Selectivity tau/α-syn” value in assay [2] is listed as more than 1515.2; in assay [1], 142.2.

Take `COc1ccc(-c2csc(-c3nc(-c4ccc5c(c4)OCO5)cs3)n2)cc1F` [d2, 4-(Benzo[d][1,3]dioxol-5-yl)-4′-(3-fluoro-4-methoxyphenyl)-2,2′-bithiazole]: the results for the inhibition constant Ki (at Aβ1−42 fibrils; in assay [1]; on tau fibrils) were 147 nM, 2.32 nM and 681 nM, respectively. Besides, the “Selectivity Aβ/α-syn” value in assay [2] turned out to be 198.1; in assay [1] it was 63.4. For the same molecule, the entries for the “Selectivity tau/α-syn” value in assay [2] and in assay [1] were more than 819.7 and 293.4, respectively.

For the molecule `FCCOCCOCCOc1cnc(-c2csc(-c3nc(-c4ccc5c(c4)OCO5)cs3)n2)nc1` [f7, 4-(Benzo[d][1,3]dioxol-5-yl)-4′-(5-(2-(2-(2-fluoroethoxy)ethoxy)ethoxy)pyrimidin-2-yl)-2,2′-bithiazole], the inhibitory constant (Ki) stood at 76.4 nM at Aβ1−42 fibrils, 1.51 nM in assay [2], 1.17 nM in assay [1] and 242 nM at tau fibrils. The “Selectivity Aβ/α-syn” value in assay [1] is on record as 65.3. Moreover, in assay [1], the “Selectivity tau/α-syn” value turned out to be 206.9.

As to `COc1ccc(-c2csc(-c3nc(-c4ccc5c(c4)OCO5)cs3)n2)cc1OCCOCCOCCF` [f14, 4-(Benzo[d][1,3]dioxol-5-yl)-4′-(3-(2-(2-(2-fluoroethoxy)ethoxy)ethoxy)-4-methoxyphenyl)-2,2′-bithiazole], the Ki on Aβ1−42 fibrils is 210 nM; in assay [1], 1.74 nM; on tau fibrils, 662 nM. The “Selectivity Aβ/α-syn” value in assay [1] stood at 120.8. Further, in assay [1], the “Selectivity tau/α-syn” value was found to be 380.6.

With `FCCOCCOCCOc1ccc(-c2csc(-c3nc(-c4cnc5c(c4)OCO5)cs3)n2)cc1` [f12, 6-(4′-(4-(2-(2-(2-Fluoroethoxy)ethoxy)ethoxy)phenyl)-[2,2′-bithiazol]-4-yl)-[1,3]dioxolo[4,5-b]pyridine], the Ki was determined as 38.7 nM on Aβ1−42 fibrils, 0.92 nM in assay [1] and 983 nM on tau fibrils. In addition, in assay [1], the “Selectivity Aβ/α-syn” value was determined as 42.1. Besides, the “Selectivity tau/α-syn” value in assay [1] stood at 1068.5.

Regarding `FCCOCCOCCOc1ccc(-c2csc(-c3nc(-c4cnc5c(c4)OCO5)cs3)n2)cc1F` [f10, 6-(4′-(3-Fluoro-4-(2-(2-(2-fluoroethoxy)ethoxy)ethoxy)phenyl)-[2,2′-bithiazol]-4-yl)-[1,3]dioxolo[4,5-b]pyridine], the Ki on Aβ1−42 fibrils stood at 37.3 nM; in assay [2], 1 nM; in assay [1], 0.93 nM; on tau fibrils, 615 nM. Besides, in assay [1], the “Selectivity Aβ/α-syn” value was 40.1.

Consider `COc1ccc(-c2csc(-c3nc(-c4cnc5c(c4)OCO5)cs3)n2)cc1` [f17, 6-(4′-(4-Methoxyphenyl)-[2,2′-bithiazol]-4-yl)-[1,3]dioxolo[4,5-b]pyridine], for which the Ki on Aβ1−42 fibrils worked out at 167 nM. Further, in assay [1], the Ki turned out to be 1.78 nM, the “Selectivity Aβ/α-syn” value was found to be 94.1 and the “Selectivity tau/α-syn” value amounted to 288.0. The Ki on tau fibrils was determined as 513 nM.

The record behind these values is article PMC10671360, “In Silico and In Vitro Study towards the Rational Design of 4,4′-Disarylbisthiazoles as a Selective α-Synucleinopathy Biomarker” (International Journal of Molecular Sciences, 2023).
